Data: patent US20220332774A1, “THERAPEUTIC MITOCHONDRIAL PEPTIDES” (priority 2019, published 2022)

Key:
C2C12 Cells = assay: Glucose utilization in cultured C2C12 cells (myotubes); type: cell-based, mouse; settings: glucose concentration in medium relative to untreated cells; 5 μM peptide, 22 h
Method in brief: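 Differentiated mouse myotubes (5 days in 2% horse serum) serum-starved 5 h, then treated 22 h at 37 °C with peptide at 5 μM final (0.1% DMSO) in low-glucose (1 g/L) DMEM. Glucose remaining in medium measured colorimetrically at 570 nm. Expressed as percent of untreated control, from 2–3 experiments in triplicate.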

3T3-L1 Mouse Adipocytes = assay: Free fatty acid levels in cultured 3T3-L1 mouse adipocytes (isoproterenol stimulated); type: cell-based; settings: free fatty acid in medium; 5 μM peptide, 20-22 h pre-incubation then 3 h with 0.1 nM isoproterenol; isoproterenol alone = 100%
Method in brief: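 3T3-L1 cells differentiated 12 days, insulin withdrawn, then peptides added on day 13 at 5 μM (0.1% DMSO) for 20-22 h at 37° C. After 3 h in assay buffer, medium free fatty acids read at 540 nm. Values expressed as percent of 0.1 nM isoproterenol-alone control.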

H4-IIE Cells = assay: Glucose production in cultured H4-IIE cells; type: cell-based, rat; settings: glucose concentration in medium relative to untreated cells; 5 μM peptide, 24 h
Method in brief: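 Rat H4-IIE hepatoma cells primed overnight in glucose-free DMEM with 2 mM pyruvate and 10 mM lactate, then treated 24 h at 37 °C with 5 μM peptide (0.1% DMSO; concentration assumes ~2000 Da). Medium glucose measured colorimetrically at 570 nm. Values are percent of untreated-cell glucose production; 0.5-1 nM insulin served as inhibitor reference.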

Row | Substance | Percent of Control Activity (C2C12 Cells) [%] | Percent of Isoproterenol Control Activity (3T3-L1 Mouse Adipocytes) [%] | Percent of Control Activity (H4-IIE Cells) [%]
1 | 102 (MPLRLEWVQWGVGGWPWVCC) [compound 102] | 102 | 120 | 108
2 | 103 (MPPKDKIWNLV) [compound 103] | 98 | 108 | 97
3 | 105 (MPRKCWLYPSRTN) [compound 105] | 114 | 91 | 118
4 | 106 (MPTNLPTLNST) [compound 106] | 101 | 98 | 107
5 | 107 (MPTPILIFRSPWSLYSYPT) [compound 107] | 110 | 104 | 96
6 | 108 (MQFTLATPKCYGPGA) [compound 108] | 96 | 102 | 104
7 | 109 (MQNPPHSSPHSSPLPRYSYLSPLLY) [compound 109] | 95 | 94 | 105
8 | 110 (MQPYRRYRFHPRLSMIYPTLQLM) [compound 110] | 110 | 93 | 108
9 | 111 (MQRWFFMSLVVVVVRA) [compound 111] | 101 | 89 | 91
10 | 112 (MQSGVLQSLAVTEIKYCNLL) [compound 112] | 93 | 103 | 144
11 | 113 (MQTKSLQSPQ) [compound 113] | 97 | 102 | 134
12 | 114 (MQWAILGLFVVG) [compound 114] | 107 | 76 | 118
13 | 116 (MSGVRKEVSLL) [compound 116] | 99 | 90 | 123
14 | 117 (MSKKIPATTMVLEWS) [compound 117] | 91 | 98 | 121
15 | 118 (MSLSYLQDSTY) [compound 118] | 83 | 98 | 126
16 | 119 (MSLTPHILPTMP) [compound 119] | 109 | 97 | 122
17 | 120 (MSMPVLGWQWG) [compound 120] | 98 | 95 | 118
18 | 121 (MSNMKTFSSA) [compound 121] | 99 | 118 | 95
19 | 122 (MSNNMAFSTFKG) [compound 122] | 103 | 113 | 97
20 | 123 (MSRNHSFCLNYMPIRFSLILFVVTH) [compound 123] | 88 | 104 | 106
21 | 124 (MSSAWIIWFRLFSI) [compound 124] | 96 | 113 | 97
22 | 125 (MSSDEFANTMPV) [compound 125] | 109 | 115 | 96
23 | 126 (MSTHLPNYHTNLSYR) [compound 126] | 110 | 108 | 87
24 | 127 (MSTINQQVIITLTVNPTQACS) [compound 127] | 109 | 104 | 88
25 | 128 (MSWSNIEVVNPIVDMDS) [compound 128] | 103 | 116 | 93
26 | 129 (MSYRAHTPKMLVMPFPY) [compound 129] | 110 | 115 | 90
27 | 130 (MTAPVKLQGVWM) [compound 130] | 103 | 110 | 97
